The supplement of paper PMC10307832

Experiments:
Experiment in all cases: relative viability (nuclei count vs DMSO), 5 days (fraction); higher = more cells survive
Crizotinib + Tozasertib = compound: C[C@@H](Oc1cc(-c2cnn(C3CCNCC3)c2)cnc1N)c1c(Cl)ccc(F)c1Cl [Crizotinib] + Cc1cc(Nc2cc(N3CCN(C)CC3)nc(Sc3ccc(NC(=O)C4CC4)cc3)n2)n[nH]1 [Tozasertib] (partner 0.1 µM)
Method in brief: (§1)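 Cells from lung cancer lines were seeded into 1536-well plates and, one day later, dosed by pin tool. Treatments were either a single drug or a fixed dose of an anchor drug with five library-drug doses (not always all listed) in √10 steps. After 5 days, nuclei were stained in a one-step fixation (final 0.05% Triton X-100, 1% formaldehyde, 1 ug/ml Hoechst) and counted on 4× images, and relative viability is the treated-to-vehicle nuclei ratio, as the median of duplicate plates.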

Crizotinib + Vorinostat = compound: C[C@@H](Oc1cc(-c2cnn(C3CCNCC3)c2)cnc1N)c1c(Cl)ccc(F)c1Cl [Crizotinib] + O=C(CCCCCCC(=O)Nc1ccccc1)NO [Vorinostat] (partner 1 µM)
Method in brief: as §1

Olaparib + Trametinib = compound: O=C(c1cc(Cc2n[nH]c(=O)c3ccccc23)ccc1F)N1CCN(C(=O)C2CC2)CC1 [Olaparib] + CC(=O)Nc1cccc(-n2c(=O)n(C3CC3)c(=O)c3c(Nc4ccc(I)cc4F)n(C)c(=O)c(C)c32)c1 [Trametinib] (partner 0.02 µM)
Method in brief: as §1

Olaparib + Linsitinib = compound: O=C(c1cc(Cc2n[nH]c(=O)c3ccccc23)ccc1F)N1CCN(C(=O)C2CC2)CC1 [Olaparib] + C[C@]1(O)C[C@@H](c2nc(-c3ccc4ccc(-c5ccccc5)nc4c3)c3c(N)nccn32)C1 [Linsitinib] (partner 1 µM)
Method in brief: as §1

Olaparib + Alpelisib = compound: O=C(c1cc(Cc2n[nH]c(=O)c3ccccc23)ccc1F)N1CCN(C(=O)C2CC2)CC1 [Olaparib] + Cc1nc(NC(=O)N2CCC[C@H]2C(N)=O)sc1-c1ccnc(C(C)(C)C(F)(F)F)c1 [Alpelisib] (partner 2 µM)
Method in brief: as §1

With NCI-H1793 the relative viability (Crizotinib + Tozasertib; first compound 0.03162 µM) was 0.342, the relative viability (Crizotinib + Tozasertib; first compound 0.1 µM) was 0.32 and the relative viability (Crizotinib + Tozasertib; first compound 1 µM) was 0.449. The relative viability (Crizotinib + Vorinostat; first compound 0.03162 µM) was 0.765, the relative viability (Crizotinib + Vorinostat; first compound 0.1 µM) was 0.748 and the relative viability (Crizotinib + Vorinostat; first compound 1 µM) was 0.896. It also gave a relative viability (Olaparib + Trametinib; first compound 0.08 µM) of 0.522, a relative viability (Olaparib + Trametinib; first compound 0.253 µM) of 0.427 and a relative viability (Olaparib + Trametinib; first compound 2.53 µM) of 0.395. For the same cell line, the relative viability (Olaparib + Trametinib; first compound 8 µM) was 0.476, the relative viability (Olaparib + Linsitinib; first compound 0.08 µM) was 0.862 and the relative viability (Olaparib + Linsitinib; first compound 0.253 µM) was 0.738. The relative viability (Olaparib + Linsitinib; first compound 2.53 µM) was 0.942, the relative viability (Olaparib + Linsitinib; first compound 8 µM) was 0.655 and the relative viability (Olaparib + Alpelisib; first compound 0.08 µM) was 0.683. For the same cell line, the relative viability (Olaparib + Alpelisib; first compound 0.253 µM) was 0.664, the relative viability (Olaparib + Alpelisib; first compound 2.53 µM) was 0.768 and the relative viability (Olaparib + Alpelisib; first compound 8 µM) was 0.601.
